In patent publication US10710978B2, “STK4 inhibitors for treatment of hematologic malignancies” (Dana-Farber Cancer Institute, Inc., priority 2015, dated 2020):
Read-outs that look alike come from different tables or passages of the source.

Legend:
MAP3K4 = MAP3K4 (Homo sapiens (Human), UniProt Q9Y6R4); assay: KiNativ assay; format: binding; settings: H929 live cell
Description: (§1) Biochemical IC50s of the compounds of the present disclosure against various kinases were measured in a KiNativ assay. Compounds were screened in duplicate at 10 μM in H929 live cell. IC50 was measured via Mass spectroscopy (MS).

PI4KA, PI4KAP2 = assay: KiNativ assay; format: binding; settings: H929 live cell
Description: as §1

HPK1 = HPK1 (Homo sapiens (Human), UniProt Q92918); assay: KiNativ assay; format: binding; settings: H929 live cell
Description: as §1

PKCi = PKCi (Homo sapiens (Human), UniProt P41743); assay: KiNativ assay; format: binding; settings: H929 live cell
PKCi, sequence (P41743 whole entry): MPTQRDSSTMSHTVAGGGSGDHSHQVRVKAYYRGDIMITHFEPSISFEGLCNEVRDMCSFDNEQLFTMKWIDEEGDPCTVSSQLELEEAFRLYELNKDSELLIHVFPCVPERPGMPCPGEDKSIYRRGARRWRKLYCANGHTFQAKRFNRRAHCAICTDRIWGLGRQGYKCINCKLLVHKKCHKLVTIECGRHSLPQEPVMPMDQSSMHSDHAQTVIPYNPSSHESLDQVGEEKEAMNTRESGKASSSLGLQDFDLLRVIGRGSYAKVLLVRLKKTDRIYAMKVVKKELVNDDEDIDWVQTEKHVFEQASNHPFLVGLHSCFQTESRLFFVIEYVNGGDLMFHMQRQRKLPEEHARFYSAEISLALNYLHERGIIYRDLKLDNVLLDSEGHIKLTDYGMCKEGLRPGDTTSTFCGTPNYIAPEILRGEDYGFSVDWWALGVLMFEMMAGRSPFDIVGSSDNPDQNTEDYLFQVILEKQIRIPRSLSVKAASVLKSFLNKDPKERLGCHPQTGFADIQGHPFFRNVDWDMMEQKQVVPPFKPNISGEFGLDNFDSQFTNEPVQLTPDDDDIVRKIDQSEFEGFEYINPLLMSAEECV
Description: as §1

MST4 = assay: KiNativ assay; format: binding; settings: H929 live cell
Description: as §1

MST3 = MST3 (Homo sapiens (Human), UniProt Q9Y6E0); assay: KiNativ assay; format: binding; settings: H929 live cell
MST3, sequence (Q9Y6E0 whole entry): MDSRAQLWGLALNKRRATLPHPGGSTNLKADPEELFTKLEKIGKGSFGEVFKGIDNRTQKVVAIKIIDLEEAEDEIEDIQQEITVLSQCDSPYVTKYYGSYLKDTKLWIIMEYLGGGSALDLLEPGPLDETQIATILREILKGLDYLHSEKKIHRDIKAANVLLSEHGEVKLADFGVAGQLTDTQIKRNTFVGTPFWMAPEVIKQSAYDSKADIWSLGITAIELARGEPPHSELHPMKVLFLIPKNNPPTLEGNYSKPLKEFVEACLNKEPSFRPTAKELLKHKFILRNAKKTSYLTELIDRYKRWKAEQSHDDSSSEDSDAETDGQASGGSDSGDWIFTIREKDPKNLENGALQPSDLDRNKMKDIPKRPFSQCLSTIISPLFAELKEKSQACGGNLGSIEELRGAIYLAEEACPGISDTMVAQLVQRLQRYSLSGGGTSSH
Description: as §1

PKN1 = PKN1 (Homo sapiens (Human), UniProt Q16512); assay: KiNativ assay; format: binding; settings: H929 live cell
Description: as §1

TLK1 = TLK1 (Homo sapiens (Human), UniProt Q9UKI8); assay: KiNativ assay; format: binding; settings: H929 live cell
Description: as §1

CaMKK2 = CaMKK2 (Homo sapiens (Human), UniProt Q96RR4); assay: KiNativ assay; format: binding; settings: H929 live cell
Description: as §1

PLK1 = PLK1 (Homo sapiens (Human), UniProt P53350); assay: KiNativ assay; format: binding; settings: H929 live cell
Description: as §1

OSR1 = OSR1 (Homo sapiens (Human), UniProt O95747); assay: KiNativ assay; format: binding; settings: H929 live cell
Description: as §1

NEK7 = NEK7 (Homo sapiens (Human), UniProt Q8TDX7); assay: KiNativ assay; format: binding; settings: H929 live cell
NEK7, sequence (Q8TDX7 whole entry): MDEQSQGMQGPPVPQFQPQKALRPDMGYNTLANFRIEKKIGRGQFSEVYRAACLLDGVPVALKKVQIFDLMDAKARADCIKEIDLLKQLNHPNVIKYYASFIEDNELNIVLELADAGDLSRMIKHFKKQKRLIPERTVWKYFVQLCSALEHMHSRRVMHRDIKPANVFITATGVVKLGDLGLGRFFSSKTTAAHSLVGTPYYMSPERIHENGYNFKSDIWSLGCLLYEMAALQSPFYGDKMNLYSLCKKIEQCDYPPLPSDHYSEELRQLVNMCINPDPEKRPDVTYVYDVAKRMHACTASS
Description: as §1

AMPKa1, AMPKa2 = assay: KiNativ assay; format: binding; settings: H929 live cell
Description: as §1

RSK1 domain1 = RSK1 domain1 (Homo sapiens (Human), UniProt Q15418); assay: KiNativ assay; format: binding; settings: H929 live cell
Description: as §1

FYN, SRC, YES = assay: KiNativ assay; format: binding; settings: H929 live cell
Description: as §1

STLK5 = STLK5 (Homo sapiens (Human), UniProt Q7RTN6); assay: KiNativ assay; format: binding; settings: H929 live cell
STLK5, sequence (Q7RTN6 whole entry): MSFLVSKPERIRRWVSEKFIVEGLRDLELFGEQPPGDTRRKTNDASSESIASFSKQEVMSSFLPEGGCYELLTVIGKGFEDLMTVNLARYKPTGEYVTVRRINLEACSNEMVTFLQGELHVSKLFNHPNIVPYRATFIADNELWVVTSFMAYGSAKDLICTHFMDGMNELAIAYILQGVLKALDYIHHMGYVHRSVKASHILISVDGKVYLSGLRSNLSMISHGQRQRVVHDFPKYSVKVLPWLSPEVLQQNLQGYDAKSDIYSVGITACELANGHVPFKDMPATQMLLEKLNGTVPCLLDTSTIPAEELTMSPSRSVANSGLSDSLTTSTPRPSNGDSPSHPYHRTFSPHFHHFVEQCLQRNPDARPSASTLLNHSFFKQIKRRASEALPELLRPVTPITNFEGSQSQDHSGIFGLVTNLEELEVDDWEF
Description: as §1

MAP2K3 = MAP2K3 (Homo sapiens (Human), UniProt P46734); assay: KiNativ assay; format: binding; settings: H929 live cell
MAP2K3, sequence (P46734 whole entry): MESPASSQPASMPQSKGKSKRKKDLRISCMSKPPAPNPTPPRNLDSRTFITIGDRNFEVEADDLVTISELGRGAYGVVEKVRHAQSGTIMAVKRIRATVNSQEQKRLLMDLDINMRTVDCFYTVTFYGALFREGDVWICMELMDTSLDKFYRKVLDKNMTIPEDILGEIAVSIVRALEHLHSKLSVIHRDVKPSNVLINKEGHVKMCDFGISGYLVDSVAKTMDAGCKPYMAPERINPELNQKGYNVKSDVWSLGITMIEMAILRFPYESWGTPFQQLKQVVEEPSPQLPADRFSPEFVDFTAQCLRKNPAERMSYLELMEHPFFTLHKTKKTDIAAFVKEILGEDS
Description: as §1

AurA = AurA (Homo sapiens (Human), UniProt O14965); assay: KiNativ assay; format: binding; settings: H929 live cell
AurA, sequence (O14965 whole entry): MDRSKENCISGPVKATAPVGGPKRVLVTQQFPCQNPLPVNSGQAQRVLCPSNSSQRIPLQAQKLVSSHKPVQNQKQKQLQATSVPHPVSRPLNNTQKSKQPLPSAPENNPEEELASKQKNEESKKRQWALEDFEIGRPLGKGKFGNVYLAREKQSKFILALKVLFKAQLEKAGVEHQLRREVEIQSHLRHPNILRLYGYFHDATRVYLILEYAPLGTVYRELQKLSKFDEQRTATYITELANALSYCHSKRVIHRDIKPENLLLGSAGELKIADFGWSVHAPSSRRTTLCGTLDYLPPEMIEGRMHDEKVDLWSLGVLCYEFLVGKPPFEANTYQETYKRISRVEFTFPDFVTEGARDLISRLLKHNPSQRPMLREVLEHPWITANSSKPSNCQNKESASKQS
Description: as §1

PIP5K3 = PIP5K3 (Homo sapiens (Human), UniProt Q9Y2I7); assay: KiNativ assay; format: binding; settings: H929 live cell
Description: as §1

PIP4K2C = PIP4K2C (Homo sapiens (Human), UniProt Q8TBX8); assay: KiNativ assay; format: binding; settings: H929 live cell
PIP4K2C, sequence (Q8TBX8 whole entry): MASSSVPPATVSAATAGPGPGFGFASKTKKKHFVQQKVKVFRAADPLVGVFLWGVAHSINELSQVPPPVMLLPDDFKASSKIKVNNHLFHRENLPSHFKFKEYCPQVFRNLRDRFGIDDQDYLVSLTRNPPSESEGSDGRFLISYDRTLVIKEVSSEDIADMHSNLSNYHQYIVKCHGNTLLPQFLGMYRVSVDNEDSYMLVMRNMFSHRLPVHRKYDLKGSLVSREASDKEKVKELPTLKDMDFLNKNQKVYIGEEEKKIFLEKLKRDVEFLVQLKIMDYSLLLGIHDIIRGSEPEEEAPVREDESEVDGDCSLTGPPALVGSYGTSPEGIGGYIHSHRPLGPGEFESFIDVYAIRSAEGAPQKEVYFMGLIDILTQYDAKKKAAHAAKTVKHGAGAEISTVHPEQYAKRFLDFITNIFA
Description: as §1

MLKL = MLKL (Homo sapiens (Human), UniProt Q8NB16); assay: KiNativ assay; format: binding; settings: H929 live cell
MLKL, sequence (Q8NB16 whole entry): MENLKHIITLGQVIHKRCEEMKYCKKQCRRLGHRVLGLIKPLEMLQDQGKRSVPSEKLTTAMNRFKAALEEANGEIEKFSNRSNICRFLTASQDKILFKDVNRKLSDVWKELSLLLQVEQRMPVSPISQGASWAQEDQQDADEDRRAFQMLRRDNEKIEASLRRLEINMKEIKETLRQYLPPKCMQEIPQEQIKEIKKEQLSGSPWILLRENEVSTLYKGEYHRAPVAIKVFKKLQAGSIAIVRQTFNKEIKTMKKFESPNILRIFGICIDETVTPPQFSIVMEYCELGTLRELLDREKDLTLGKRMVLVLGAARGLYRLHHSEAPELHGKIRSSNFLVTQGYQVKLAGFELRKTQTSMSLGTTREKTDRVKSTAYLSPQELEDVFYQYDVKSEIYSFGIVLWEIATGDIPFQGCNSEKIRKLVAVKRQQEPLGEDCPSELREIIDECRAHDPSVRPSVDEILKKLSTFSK
Description: as §1

MSK1 domain1 = MSK1 domain1 (Homo sapiens (Human), UniProt O75582); assay: KiNativ assay; format: binding; settings: H929 live cell
MSK1 domain1, sequence (O75582 whole entry, the tested form may be a part): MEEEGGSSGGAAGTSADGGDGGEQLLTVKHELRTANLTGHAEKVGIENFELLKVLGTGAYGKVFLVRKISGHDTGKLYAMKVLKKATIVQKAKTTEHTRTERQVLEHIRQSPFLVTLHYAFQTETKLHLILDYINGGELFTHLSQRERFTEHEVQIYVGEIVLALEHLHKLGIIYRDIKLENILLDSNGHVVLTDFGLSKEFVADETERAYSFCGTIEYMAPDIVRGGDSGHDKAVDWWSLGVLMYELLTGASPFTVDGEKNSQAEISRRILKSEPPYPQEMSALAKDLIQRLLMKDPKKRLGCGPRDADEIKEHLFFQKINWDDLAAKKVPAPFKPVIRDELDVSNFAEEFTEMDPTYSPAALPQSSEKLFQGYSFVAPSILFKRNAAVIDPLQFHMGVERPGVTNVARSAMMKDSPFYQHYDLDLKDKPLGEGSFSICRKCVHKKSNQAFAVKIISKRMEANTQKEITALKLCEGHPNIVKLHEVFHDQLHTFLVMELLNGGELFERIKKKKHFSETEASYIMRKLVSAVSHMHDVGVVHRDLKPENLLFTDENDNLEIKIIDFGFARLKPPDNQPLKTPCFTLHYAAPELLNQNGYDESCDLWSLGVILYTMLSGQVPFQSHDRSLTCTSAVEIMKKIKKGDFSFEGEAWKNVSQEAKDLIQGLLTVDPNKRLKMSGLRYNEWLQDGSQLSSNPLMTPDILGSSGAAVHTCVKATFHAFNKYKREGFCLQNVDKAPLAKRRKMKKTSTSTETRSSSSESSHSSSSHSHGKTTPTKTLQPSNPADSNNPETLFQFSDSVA
Description: as §1

CDK2 = CDK2 (Homo sapiens (Human), UniProt P24941); assay: KiNativ assay; format: binding; settings: H929 live cell
Description: as §1

IKKe, TBK1 = assay: KiNativ assay; format: binding; settings: H929 live cell
Description: as §1

p38a = p38a (Homo sapiens (Human), UniProt Q16539); assay: KiNativ assay; format: binding; settings: H929 live cell, range class, read-out: % inhibition
Description: as §1

NuaK1 = NuaK1 (Homo sapiens (Human), UniProt O60285); assay: KiNativ assay; format: binding; settings: H929 live cell
NuaK1, sequence (O60285 whole entry): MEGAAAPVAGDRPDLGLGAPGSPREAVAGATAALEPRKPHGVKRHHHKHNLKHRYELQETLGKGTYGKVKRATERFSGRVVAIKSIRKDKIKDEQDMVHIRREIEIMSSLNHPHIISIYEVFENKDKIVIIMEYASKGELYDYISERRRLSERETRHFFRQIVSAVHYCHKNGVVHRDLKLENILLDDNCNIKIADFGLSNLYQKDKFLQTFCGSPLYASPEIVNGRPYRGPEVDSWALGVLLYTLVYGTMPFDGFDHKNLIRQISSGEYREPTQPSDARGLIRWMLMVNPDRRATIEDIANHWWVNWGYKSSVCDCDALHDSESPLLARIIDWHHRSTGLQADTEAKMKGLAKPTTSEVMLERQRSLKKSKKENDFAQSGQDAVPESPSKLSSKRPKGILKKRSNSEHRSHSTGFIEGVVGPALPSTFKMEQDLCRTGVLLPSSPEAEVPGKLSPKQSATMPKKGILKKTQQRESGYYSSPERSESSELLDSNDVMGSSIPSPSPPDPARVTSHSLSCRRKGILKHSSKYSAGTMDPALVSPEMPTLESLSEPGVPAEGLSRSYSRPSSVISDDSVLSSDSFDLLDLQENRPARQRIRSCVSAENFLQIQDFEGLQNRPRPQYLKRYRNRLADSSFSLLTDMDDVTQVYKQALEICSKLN
Description: as §1

TLK2 = TLK2 (Homo sapiens (Human), UniProt Q86UE8); assay: KiNativ assay; format: binding; settings: H929 live cell
Description: as §1

STK4 (MST1) = STK4 (MST1) (Homo sapiens (Human), UniProt Q13043); assay: Z-lyte biochemical IC50 assay (Invitrogen); settings: ATP concentration matched the Km
In short: (§2)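 FRET-based Z-lyte kinase assays run at Invitrogen, ATP at each kinase's Km; for STK4, 6.25-160 ng enzyme with 2 μM Ser/Thr 07 peptide in HEPES pH 7.5, MgCl2, EGTA, Brij-35, 1 h reaction then development reagent. 10-point 3-fold titration from 10 μM.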

STK24 (MST3) = STK24 (MST3) (Homo sapiens (Human), UniProt Q9Y6E0); assay: Z-lyte biochemical IC50 assay (Invitrogen); settings: ATP concentration matched the Km
STK24 (MST3), sequence (Q9Y6E0 whole entry): as the sequence (Q9Y6E0 whole entry) above
In short: as §2

[1] = range class, read-out: % inhibition

Structure (SMILES): COc1cc(NS(=O)(=O)C2CC2)ccc1-c1cnc(N)c(-c2ccc3c(c2)CCNC3=O)c1 [Compound I-50, N-(4-(6-amino-5-(1-oxo-1,2,3,4-tetrahydroisoquinolin-6-yl)pyridin-3-yl)-3-methoxyphenyl) cyclopropanesulfonamide]
- inhibition at 10 µM (MAP3K4; [1]): 0%
- inhibition at 10 µM (MAP3K4; read-out: inhibition (10 μM)): 9.5%
- % inhibition (PI4KA, PI4KAP2; 10 μM, range class): 0.0%
- inhibition (10 μM) (PI4KA, PI4KAP2): 24.7%
- inhibition at 10 µM (HPK1; [1]): > 90%
- inhibition at 10 µM (HPK1; read-out: inhibition (10 μM)): 90.4%
- inhibition at 10 µM (PKCi; [1]): 0%
- inhibition at 10 µM (PKCi; read-out: inhibition (10 μM)): -15%
- % inhibition (MST4; 10 μM, range class): 0.0%
- inhibition (10 μM) (MST4): −68.1%
- inhibition at 10 µM (MST3; [1]): 0%
- inhibition at 10 µM (MST3; read-out: inhibition (10 μM)): 20%
- inhibition at 10 µM (PKN1; [1]): 0%
- inhibition at 10 µM (PKN1; read-out: inhibition (10 μM)): -39.9%
- inhibition at 10 µM (TLK1; [1]): 0%
- inhibition at 10 µM (TLK1; read-out: inhibition (10 μM)): -7.5%
- inhibition at 10 µM (CaMKK2; [1]): 75 to 90%
- inhibition at 10 µM (CaMKK2; read-out: inhibition (10 μM)): 88.3%
- inhibition at 10 µM (PLK1; [1]): 0%
- inhibition at 10 µM (PLK1; read-out: inhibition (10 μM)): -11.1%
- inhibition at 10 µM (OSR1; [1]): 0%
- inhibition at 10 µM (OSR1; read-out: inhibition (10 μM)): 16.6%
- inhibition at 10 µM (NEK7; [1]): 0%
- inhibition at 10 µM (NEK7; read-out: inhibition (10 μM)): -18.9%
- % inhibition (AMPKa1, AMPKa2; 10 μM, range class): 0.0%
- inhibition (10 μM) (AMPKa1, AMPKa2): −8.2%
- inhibition at 10 µM (RSK1 domain1; [1]): 0%
- inhibition at 10 µM (RSK1 domain1; read-out: inhibition (10 μM)): -4.6%
- % inhibition (FYN, SRC, YES; 10 μM, range class): 0.0%
- inhibition (10 μM) (FYN, SRC, YES): −2.0%
- inhibition at 10 µM (STLK5; [1]): 0%
- inhibition at 10 µM (STLK5; read-out: inhibition (10 μM)): -22.3%
- inhibition at 10 µM (MAP2K3; [1]): 0%
- inhibition at 10 µM (MAP2K3; read-out: inhibition (10 μM)): -5.7%
- inhibition (10 μM) (AurA): 11.9%
- inhibition at 10 µM (AurA; [1]): 0%
- inhibition at 10 µM (AurA; read-out: inhibition (10 μM)): 18%
- inhibition at 10 µM (PIP5K3; [1]): 75 to 90%
- inhibition at 10 µM (PIP5K3; read-out: inhibition (10 μM)): 79.7%
- inhibition at 10 µM (PIP4K2C; [1]): > 90%
- inhibition at 10 µM (PIP4K2C; read-out: inhibition (10 μM)): 90.6%
- inhibition at 10 µM (MLKL; [1]): 0%
- inhibition at 10 µM (MLKL; read-out: inhibition (10 μM)): 8.2%
- inhibition at 10 µM (MSK1 domain1; [1]): 0%
- inhibition at 10 µM (MSK1 domain1; read-out: inhibition (10 μM)): 0.1%
- inhibition at 10 µM (CDK2; [1]): 0%
- inhibition at 10 µM (CDK2; read-out: inhibition (10 μM)): 17.3%
- % inhibition (IKKe, TBK1; 10 μM, range class): 0.0%
- inhibition (10 μM) (IKKe, TBK1): 33.9%
- inhibition at 10 µM (p38a): 0%
- inhibition (10 μM) (NuaK1): 61.5%
- inhibition at 10 µM (NuaK1; [1]): 50 to 75%
- inhibition at 10 µM (NuaK1; read-out: inhibition (10 μM)): 67.9%
- inhibition at 10 µM (TLK2; [1]): 0%
- inhibition at 10 µM (TLK2; read-out: inhibition (10 μM)): -3%
- IC50 (STK4 (MST1)): < 40 nM
- IC50 (STK24 (MST3)): 200 to 900 nM
